# Where “and” joins values, the source holds several entries; their conditions need not be identical. Equal values may be shown once.
# How the values were obtained:
# Format in all cases: cell-based, Murine
# K2P10.1 (TREK-2) = target: T1, K2P10.1 (TREK-2) (Mus musculus, UniProt Q8BUW1); test: Two-electrode voltage clamp, Xenopus oocytes expressing K2P10.1 (TREK-2)
# T1 construct: expressed in transfected cells; host or cells: Xenopus oocytes
# T1 sequence (Q8BUW1 1-535): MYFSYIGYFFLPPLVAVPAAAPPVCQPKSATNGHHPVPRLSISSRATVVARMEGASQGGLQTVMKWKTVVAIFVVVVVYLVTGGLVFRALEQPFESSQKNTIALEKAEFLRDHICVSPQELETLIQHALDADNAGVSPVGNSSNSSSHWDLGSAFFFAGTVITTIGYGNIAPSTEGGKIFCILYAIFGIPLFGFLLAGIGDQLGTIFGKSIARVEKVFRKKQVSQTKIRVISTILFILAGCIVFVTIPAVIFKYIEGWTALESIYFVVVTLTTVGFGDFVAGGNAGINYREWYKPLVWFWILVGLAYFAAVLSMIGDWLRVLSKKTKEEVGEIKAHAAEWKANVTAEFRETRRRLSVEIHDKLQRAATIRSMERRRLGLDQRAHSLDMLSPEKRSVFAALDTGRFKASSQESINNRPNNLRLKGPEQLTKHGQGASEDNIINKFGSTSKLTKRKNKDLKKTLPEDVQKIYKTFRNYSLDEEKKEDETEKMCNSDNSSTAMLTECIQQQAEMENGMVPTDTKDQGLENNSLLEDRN
# Protocol: (§1) FIG. 7 ML67-33 is a selective activator of heat- and mechanosensitive K2P channels. a-f, Exemplar I-V curves showing the effect of ML67-33 on a, K2P10.1 (TREK-2), b, K2P4.1 (TRAAK), c, K2P3.1 (TASK-1), d, K2P9.1 (TASK-3), e, K2P5.1 (TASK-2), and f, K2P18.1 (TRESK) measured in Xenopus oocytes in 2 mM [K^+]o pH 7.4. Currents were elicited by a voltage ramp from −150 to 50 mV, from a holding potential of −80 mV. g, Quantification of the effect of ML67-33 on the indicated channels. Data (mean±s.e., n≧6, N≧2) was normalized to basal channel activity and fitted to the Hill equation. […] Error bars indicate s.e., n≧6, N≧2.
# (§2) Murine K2P channels were cloned into pGEMHE/pMO {Bagriantsev, 2011}, IRES-GFP (Invitrogen), or pYES2-MET25 (high copy 2μ, URA3) {Minor, 1999} for expression in oocytes, HEK-293T cells, and yeast, respectively, using standard molecular biology procedures, and verified by DNA sequencing.
# (§3) Two-electrode voltage clamp recordings were performed from defolliculated stage V-VI Xenopus oocytes 24-48 hours after injection with 0.015-6.0 ng cRNA, using microelectrodes (0.3-3.0 MΩ) filled with 3M KCl. Data was acquired using the GeneClamp 500B (MDS Analytical Technologies) amplifier controlled by the pClamp software (Molecular Devices), and digitized at 1 kHz using Digidata 1332A (MDS Analytical Technologies). Recording solutions (mM): 2K (96 NaCl, 2 KCl, 1.8 CaCl2, 2 MgCl2), 90K (90 KCl, 8 NaCl, 1.8 CaCl2, 2 MgCl2), were buffered 5 mM HEPES pH 7.4. For K2P recordings, currents we elicited by a 1 second long ramp from −150 to +50 mV from a holding potential of −80 mV (2K), or −100 to +50 mV from a holding potential of 0 mV (90K). For KCNQ2 recordings, currents were elicited by a step protocol from −120 to 60 mV, in 20 mV increments, from a holding potential of −80 mV. Patch-clamp recordings from HEK-293T cells were performed using microelectrodes (2-3 MΩ) filled with 1M KCl. Data was acquired using the Axopatch 200B amplifier controlled by pClamp software, and digitized at 1 kHz using Digidata 1332A. Recording solutions (mM): intracellular (145 KCl, 5 EGTA, 3 MgCl2,) extracellular (150 NaCl, 5 KCl, 3 MgCl2, 1 CaCl2) were buffered with 5 mM HEPES pH 7.2 and 7.4, respectively. Currents were elicited by a 1 second long ramp from −150 to +50 mV from a holding potential of −80 mV. Data were fitted with a modified Hill's equation: I=Imin+(Imax−Imin)/(1+10^((Log EC50−Log [C])*H)), where Imax and Imin are maximal and minimal current values, respectively, EC50 is a half-maximal effective concentration of the compound, and H is the Hill coefficient.
# (§4) There are six K2P subgroups {Noel, 2011} (FIG. 11). […]
# K2P3.1 (TASK-1) = target: T2, K2P3.1 (TASK-1) (Mus musculus, UniProt O35111); test: Two-electrode voltage clamp, Xenopus oocytes expressing K2P3.1 (TASK-1)
# T2 construct: expressed in transfected cells; host or cells: Xenopus oocytes
# T2 sequence (O35111 whole entry): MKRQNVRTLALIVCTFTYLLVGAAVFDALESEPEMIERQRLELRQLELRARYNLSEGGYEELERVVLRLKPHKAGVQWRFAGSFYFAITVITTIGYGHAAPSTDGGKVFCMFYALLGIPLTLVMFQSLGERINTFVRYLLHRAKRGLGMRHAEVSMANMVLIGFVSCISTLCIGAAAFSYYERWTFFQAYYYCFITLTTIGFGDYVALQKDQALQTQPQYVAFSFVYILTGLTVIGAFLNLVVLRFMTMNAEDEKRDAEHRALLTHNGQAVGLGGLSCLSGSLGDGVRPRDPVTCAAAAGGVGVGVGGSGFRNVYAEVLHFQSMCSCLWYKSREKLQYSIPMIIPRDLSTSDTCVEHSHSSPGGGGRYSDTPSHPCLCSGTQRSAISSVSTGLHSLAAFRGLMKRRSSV
# Protocol: as §1, §2, §3, §4
# K2P2.1 (TREK-1) = target: T3, K2P2.1 (TREK-1) (Mus musculus, UniProt P97438); test: Whole cell patch clamp of HEK-293T cells expressing K2P2.1 (TREK-1)
# T3 construct: expressed in transfected cells; host or cells: Xenopus oocytes (cRNA injection, pGEMHE/pMO)
# T3 sequence (P97438 1-411 isoform P97438-2): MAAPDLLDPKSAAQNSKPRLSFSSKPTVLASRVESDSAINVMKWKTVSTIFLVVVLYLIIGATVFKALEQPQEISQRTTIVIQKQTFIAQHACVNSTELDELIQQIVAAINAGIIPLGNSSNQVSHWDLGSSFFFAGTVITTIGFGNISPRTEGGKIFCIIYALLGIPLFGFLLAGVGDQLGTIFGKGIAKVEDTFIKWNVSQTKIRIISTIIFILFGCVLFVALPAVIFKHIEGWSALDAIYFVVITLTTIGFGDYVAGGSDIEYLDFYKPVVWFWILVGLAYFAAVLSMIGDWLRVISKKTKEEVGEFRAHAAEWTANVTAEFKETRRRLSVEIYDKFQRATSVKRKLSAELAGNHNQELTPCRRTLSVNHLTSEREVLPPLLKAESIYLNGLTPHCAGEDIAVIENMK
# Protocol: as §2, §3
smiles,measurement,setting,value
"CC1(C)c2cc(Cl)ccc2N(CCc2nnn[nH]2)c2ccc(Cl)cc21 [ML67-33, 2,7-dichloro-9,9-dimethyl-10-[2-(1H-tetrazol-5-yl)ethyl]acridine]",Emax (fold),K2P10.1 (TREK-2); FIG. 7 legend: at 100 μM,11.4±1.8 fold
same,EC50,"K2P10.1 (TREK-2); Xenopus oocytes, 2 mM [K+]o pH 7.4",30.2 ± 1.4 µM
same,functional effect / activation (in words),"K2P3.1 (TASK-1); ML67-33 applied at 100 μM, ML67 concentration not stated",little or no functional effects
same,Emax (fold),"K2P3.1 (TASK-1); at 100 μM (FIG. 7 legend), ** in Table 1",1.1±0.0 fold and 1.1 ± 0.1** fold
same,Emax (fold),"K2P2.1 (TREK-1); HEK-293T cells, whole cell patch clamp, at 100 μM per FIG. 4 legend",11.4±1.1 fold
same,EC50,"K2P2.1 (TREK-1); HEK-293T cells, whole cell patch clamp, marked * in Table 1",9.7 ± 1.2 µM
same,time of half-maximal activation (t1/2act),"K2P2.1 (TREK-1); whole-cell, HEK-293T, 0 mV",4.1 ± 0.5 s
same,time of return to baseline following washout (t1/2wash),"K2P2.1 (TREK-1); whole-cell, HEK-293T, 0 mV",3.9 ± 0.5 s
